Source: patent US8470814B2, “Diazepinedione derivative” (Nippon Chemiphar Co., Ltd., priority 2009, dated 2013)
pIC50: −log10 of the molar value. Structures can show the parent of a compound that is named as a salt.

molecular target: T1, human P2X4 receptors (Homo sapiens, UniProt Q99571); test: calcium influx assay (Fura-2, ATP-induced Ca2+ response) for P2X4 receptor antagonism; format: cell-based; conditions: 1321N1 cells stably expressing human P2X4 receptors; 1 μM ATP; compound treated 15 min before ATP; fluorescence ratio F340/F380
T1 construct: expressed in transfected cells
T1 sequence (Q99571 1-388): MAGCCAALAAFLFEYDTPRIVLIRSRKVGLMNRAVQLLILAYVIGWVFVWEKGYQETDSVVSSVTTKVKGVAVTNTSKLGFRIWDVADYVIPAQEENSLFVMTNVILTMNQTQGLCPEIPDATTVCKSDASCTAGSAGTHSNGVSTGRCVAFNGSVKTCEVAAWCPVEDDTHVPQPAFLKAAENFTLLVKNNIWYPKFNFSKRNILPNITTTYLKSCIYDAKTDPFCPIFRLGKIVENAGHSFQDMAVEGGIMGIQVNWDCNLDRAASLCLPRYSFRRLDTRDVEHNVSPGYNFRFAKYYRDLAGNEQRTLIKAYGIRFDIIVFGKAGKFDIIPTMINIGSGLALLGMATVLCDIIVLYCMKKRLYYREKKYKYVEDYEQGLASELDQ
Experimental: (§1) 1321N1 cells stably expressing human P2X4 receptors were adopted for calcium influx assay. P2X4/1321N1 cells were plated in 96-well assay plate and cultured 24 hours in an atmosphere of 5% CO2 at 37° C. Fura-2 AM calcium indicator dissolved in an extracellular solution for calcium imaging was loaded onto cells for 45 minutes at room temperature. […] The cells were alternatively illuminated with two excitations wavelengths (340 nm and 380 nm) via xenon lamp and the emitted fluorescence was measured at 510 nm. The fluorescence changes after the treatment of 1 μM ATP were monitored and determined the fluorescence ratio (F340/F380) as the index of intracellular calcium change. Tested compounds were treated to cells 15 min before the addition of ATP and the inhibition activities of compounds were calculated by comparing the Ca^2+ response with control in the absence of tested compound.
P2X4 receptor antagonism of the compound of the present invention was measured as described below.
as §1, with “change.” for “change. Tested compounds were treated to cells 15 min before the addition of ATP and the inhibition activities of compounds were calculated by comparing the Ca^2+ response with control in the absence of tested compound.”

| SMILES | pIC50 |
| --- | --- |
| O=C1CC(=O)N(c2cccc(-c3ncco3)c2)c2ccc3ccccc3c2N1 [Example 15, 5-[3-(Oxazol-2-yl)phenyl]-1H-naphtho[1,2-b][1,4]diazepin-2,4(3H,5H)-dione] | 5.38 |
| O=C1CC(=O)N(c2cccc(-c3cn[nH]c3)c2)c2ccc3ccccc3c2N1 [Example 16, 5-[3-(1H-Pyrazol-4-yl)phenyl]-1H-naphtho[1,2-b][1,4]diazepin-2,4(3H,5H)-dione] | 5.44 |
| O=C1CC(=O)N(c2ccc(-c3nnn[nH]3)cc2)c2ccc3ccccc3c2N1 [Example 4, 5-[4-(1H-Tetrazol-5-yl)phenyl]-1H-naphtho[1,2-b][1,4]diazepin-2,4(3H,5H)-dione sodium salt] | 6.12 |
